{"source": "ChEMBL document CHEMBL5465560", "about": "“Selectivity Literature for EUbOPEN Chemogenomic Library” (2024)", "key": {"[1]": {"target": "T1, Mitogen-activated protein kinase kinase kinase 2 (Homo sapiens) (UniProt Q9Y2U5)", "T1 sequence (whole entry)": "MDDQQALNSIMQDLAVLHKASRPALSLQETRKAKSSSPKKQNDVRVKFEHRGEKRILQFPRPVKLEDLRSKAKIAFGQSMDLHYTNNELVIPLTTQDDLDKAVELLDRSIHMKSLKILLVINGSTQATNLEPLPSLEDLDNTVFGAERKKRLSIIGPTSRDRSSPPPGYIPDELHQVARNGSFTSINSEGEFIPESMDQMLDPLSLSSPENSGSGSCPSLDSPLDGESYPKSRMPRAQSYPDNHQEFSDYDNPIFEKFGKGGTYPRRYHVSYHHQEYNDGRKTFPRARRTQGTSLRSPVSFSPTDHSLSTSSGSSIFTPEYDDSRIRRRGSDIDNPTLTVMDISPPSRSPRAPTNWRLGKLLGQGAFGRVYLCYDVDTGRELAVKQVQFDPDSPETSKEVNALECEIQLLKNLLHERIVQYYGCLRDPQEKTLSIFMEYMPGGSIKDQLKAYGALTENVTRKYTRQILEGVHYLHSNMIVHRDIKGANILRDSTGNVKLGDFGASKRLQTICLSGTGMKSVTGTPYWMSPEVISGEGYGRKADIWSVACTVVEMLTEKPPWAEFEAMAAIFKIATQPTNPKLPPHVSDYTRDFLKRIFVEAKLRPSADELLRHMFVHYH", "assay": "Selectivity interaction (ActivX KiNativ screen (kinase selectivity in THP-1 cell lysates)) EUB0000639a MAP3K2", "type": "subcellular", "conditions": "lysate, at 0.2 µM"}, "[2]": {"target": "Protein kinase C alpha type (Homo sapiens, UniProt P17252)", "assay": "Selectivity interaction (Kinase panel (literature)) EUB0001199aCl PRKCA", "conditions": "at 1 µM"}, "[3]": {"target": "DNA (cytosine-5)-methyltransferase 3A (Homo sapiens) (UniProt Q9Y6K1)", "sequence (Q9Y6K1 whole entry, looked up)": "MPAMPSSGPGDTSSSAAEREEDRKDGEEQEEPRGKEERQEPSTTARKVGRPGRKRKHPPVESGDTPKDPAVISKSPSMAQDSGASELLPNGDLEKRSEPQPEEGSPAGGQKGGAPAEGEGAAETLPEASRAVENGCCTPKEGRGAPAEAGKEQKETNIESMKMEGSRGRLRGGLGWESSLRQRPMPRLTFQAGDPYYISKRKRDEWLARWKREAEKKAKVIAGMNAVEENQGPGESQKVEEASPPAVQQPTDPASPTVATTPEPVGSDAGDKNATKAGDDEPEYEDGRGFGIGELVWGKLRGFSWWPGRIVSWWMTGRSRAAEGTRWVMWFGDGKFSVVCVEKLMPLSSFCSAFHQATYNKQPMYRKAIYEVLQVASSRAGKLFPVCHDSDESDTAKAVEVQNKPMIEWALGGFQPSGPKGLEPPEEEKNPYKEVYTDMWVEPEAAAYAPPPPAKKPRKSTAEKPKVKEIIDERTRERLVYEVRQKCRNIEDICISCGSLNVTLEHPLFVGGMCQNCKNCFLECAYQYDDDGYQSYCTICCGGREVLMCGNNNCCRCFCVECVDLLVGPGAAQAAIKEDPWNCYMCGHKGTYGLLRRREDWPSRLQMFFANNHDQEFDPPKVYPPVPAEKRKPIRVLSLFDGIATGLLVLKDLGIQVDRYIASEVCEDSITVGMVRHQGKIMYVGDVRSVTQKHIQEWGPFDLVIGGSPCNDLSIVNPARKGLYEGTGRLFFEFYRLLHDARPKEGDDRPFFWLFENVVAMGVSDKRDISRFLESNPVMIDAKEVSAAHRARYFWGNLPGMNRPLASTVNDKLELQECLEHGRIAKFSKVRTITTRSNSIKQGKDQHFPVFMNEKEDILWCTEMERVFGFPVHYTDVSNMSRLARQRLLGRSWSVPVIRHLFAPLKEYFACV", "assay": "Selectivity interaction (Methyltransferase screen (radiometric assays, panel of 8 PRMTs, 21 protein lysine methyltransferases, 3 DNA methyltransferases, and one RNA methyltransferase)) EUB0000272b DNMT3A"}, "[4]": {"target": "cAMP-dependent protein kinase catalytic subunit alpha (Homo sapiens, UniProt P17612)", "conditions": "at 10 µM"}, "[5]": {"target": "T2, Protein arginine N-methyltransferase 9 (Homo sapiens) (UniProt Q6P2P2)", "T2 sequence (whole entry)": "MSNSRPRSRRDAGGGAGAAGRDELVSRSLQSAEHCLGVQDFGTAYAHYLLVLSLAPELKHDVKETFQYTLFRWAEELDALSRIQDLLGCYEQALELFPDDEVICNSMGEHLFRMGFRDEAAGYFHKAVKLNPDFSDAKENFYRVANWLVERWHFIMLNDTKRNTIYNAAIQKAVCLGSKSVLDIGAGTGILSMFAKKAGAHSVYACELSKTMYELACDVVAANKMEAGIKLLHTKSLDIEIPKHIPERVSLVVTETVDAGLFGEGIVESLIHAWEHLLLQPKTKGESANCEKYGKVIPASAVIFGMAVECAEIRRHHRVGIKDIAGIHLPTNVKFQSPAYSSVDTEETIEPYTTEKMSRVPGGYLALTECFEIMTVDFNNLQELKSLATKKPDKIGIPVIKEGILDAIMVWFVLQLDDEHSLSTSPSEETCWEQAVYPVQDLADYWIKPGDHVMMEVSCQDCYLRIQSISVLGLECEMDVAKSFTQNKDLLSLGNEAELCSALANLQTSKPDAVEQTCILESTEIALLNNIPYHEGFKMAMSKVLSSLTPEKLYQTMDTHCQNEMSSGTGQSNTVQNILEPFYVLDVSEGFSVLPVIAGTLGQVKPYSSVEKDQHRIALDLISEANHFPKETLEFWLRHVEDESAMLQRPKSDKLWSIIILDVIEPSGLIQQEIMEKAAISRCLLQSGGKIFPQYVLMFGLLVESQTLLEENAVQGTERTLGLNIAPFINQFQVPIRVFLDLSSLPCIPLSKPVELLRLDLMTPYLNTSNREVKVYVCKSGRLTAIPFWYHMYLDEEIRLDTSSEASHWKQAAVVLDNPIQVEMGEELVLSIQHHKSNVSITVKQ", "assay": "Selectivity interaction (Methyltransferase screen (radiometric assays, panel of 8 PRMTs, 21 protein lysine methyltransferases, 3 DNA methyltransferases, and one RNA methyltransferase)) EUB0000271b PRMT9"}, "[6]": {"target": "Tyrosine-protein kinase JAK2 (Homo sapiens, UniProt O60674)", "sequence (O60674 whole entry)": "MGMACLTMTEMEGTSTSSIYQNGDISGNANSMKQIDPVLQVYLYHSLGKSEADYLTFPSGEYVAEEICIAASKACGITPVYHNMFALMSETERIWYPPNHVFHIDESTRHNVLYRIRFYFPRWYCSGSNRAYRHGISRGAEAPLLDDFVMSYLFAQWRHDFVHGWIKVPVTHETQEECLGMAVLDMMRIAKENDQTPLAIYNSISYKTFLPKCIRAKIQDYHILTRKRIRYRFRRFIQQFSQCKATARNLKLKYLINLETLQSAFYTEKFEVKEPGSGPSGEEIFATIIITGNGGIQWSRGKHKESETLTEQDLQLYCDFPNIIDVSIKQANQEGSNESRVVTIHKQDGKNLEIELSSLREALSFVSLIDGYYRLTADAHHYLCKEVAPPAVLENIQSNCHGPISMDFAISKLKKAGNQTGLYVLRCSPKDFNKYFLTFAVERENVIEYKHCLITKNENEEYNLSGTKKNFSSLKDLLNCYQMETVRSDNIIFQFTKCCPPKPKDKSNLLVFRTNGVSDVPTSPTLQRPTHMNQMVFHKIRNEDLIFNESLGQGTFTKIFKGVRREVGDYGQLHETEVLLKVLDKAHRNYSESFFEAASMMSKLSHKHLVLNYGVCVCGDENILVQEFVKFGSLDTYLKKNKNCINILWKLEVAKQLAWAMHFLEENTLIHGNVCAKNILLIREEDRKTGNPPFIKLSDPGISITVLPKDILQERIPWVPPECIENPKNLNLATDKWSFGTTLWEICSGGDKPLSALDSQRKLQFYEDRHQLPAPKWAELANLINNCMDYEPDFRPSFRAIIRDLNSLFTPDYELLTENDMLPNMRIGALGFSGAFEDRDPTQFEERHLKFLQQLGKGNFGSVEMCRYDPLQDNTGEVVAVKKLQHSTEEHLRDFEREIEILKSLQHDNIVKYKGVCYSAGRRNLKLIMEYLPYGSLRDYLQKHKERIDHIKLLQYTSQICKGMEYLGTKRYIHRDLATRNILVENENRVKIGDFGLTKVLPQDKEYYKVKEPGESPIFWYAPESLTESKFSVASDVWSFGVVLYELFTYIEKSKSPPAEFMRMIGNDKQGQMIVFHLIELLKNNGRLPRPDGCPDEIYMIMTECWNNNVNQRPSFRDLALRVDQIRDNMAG", "assay": "Selectivity interaction (KinomeScan (DiscoverX)) EUB0000595a JAK2", "conditions": "at 10 µM"}, "[7]": {"target": "T3, Mitogen-activated protein kinase 12 (Homo sapiens) (UniProt P53778)", "T3 sequence (whole entry)": "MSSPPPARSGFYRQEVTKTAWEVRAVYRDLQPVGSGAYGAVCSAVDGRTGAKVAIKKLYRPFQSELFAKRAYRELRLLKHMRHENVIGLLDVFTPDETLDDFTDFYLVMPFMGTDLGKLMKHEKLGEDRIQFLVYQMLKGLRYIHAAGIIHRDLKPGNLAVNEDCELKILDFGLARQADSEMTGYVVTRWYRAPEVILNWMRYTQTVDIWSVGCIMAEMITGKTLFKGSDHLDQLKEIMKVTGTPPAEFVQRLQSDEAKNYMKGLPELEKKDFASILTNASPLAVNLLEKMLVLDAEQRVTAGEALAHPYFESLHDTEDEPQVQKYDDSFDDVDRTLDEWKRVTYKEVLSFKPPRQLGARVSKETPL", "assay": "Selectivity interaction (KinomeScan (DiscoverX)) EUB0000229b MAPK12", "conditions": "at 10 µM"}, "[8]": {"tested_on": "Tyrosine-protein kinase ABL1 (Homo sapiens), P00519 [F317L]", "assay": "Selectivity interaction (KinomeScan (DiscoverX)) EUB0000229b ABL1", "conditions": "at 1 µM"}, "[9]": {"target": "Serine/threonine-protein kinase N2 (Homo sapiens, UniProt Q16513)", "sequence (Q16513 whole entry, looked up)": "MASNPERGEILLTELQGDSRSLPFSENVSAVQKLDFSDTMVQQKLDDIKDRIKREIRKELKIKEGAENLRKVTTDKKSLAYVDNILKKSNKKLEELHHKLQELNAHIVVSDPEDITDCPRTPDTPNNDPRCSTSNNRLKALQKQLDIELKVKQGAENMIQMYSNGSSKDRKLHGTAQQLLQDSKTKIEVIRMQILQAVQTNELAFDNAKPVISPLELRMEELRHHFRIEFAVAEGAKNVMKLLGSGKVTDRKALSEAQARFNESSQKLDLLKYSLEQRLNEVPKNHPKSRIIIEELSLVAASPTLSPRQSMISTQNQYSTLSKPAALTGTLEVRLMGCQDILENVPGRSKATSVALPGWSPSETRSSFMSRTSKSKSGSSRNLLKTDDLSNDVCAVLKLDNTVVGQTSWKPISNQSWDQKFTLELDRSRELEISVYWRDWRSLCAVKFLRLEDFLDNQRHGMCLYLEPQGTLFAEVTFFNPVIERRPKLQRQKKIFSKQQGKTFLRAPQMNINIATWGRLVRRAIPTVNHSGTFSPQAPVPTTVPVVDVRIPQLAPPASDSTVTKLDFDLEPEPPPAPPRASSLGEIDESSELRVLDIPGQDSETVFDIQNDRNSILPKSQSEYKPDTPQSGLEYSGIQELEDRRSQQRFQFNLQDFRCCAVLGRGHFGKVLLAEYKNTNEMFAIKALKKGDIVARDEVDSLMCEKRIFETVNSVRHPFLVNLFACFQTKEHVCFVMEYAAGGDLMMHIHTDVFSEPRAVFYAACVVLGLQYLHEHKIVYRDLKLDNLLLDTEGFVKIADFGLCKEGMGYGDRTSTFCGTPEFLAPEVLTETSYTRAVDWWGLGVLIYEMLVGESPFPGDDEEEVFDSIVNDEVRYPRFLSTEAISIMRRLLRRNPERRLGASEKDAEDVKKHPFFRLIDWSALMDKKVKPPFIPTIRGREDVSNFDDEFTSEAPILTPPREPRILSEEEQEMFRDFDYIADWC", "assay": "Selectivity interaction (KinomeScan (DiscoverX)) EUB0000229b PKN2", "conditions": "at 10 µM"}, "[10]": {"target": "Platelet-derived growth factor receptor alpha (Homo sapiens, UniProt P16234)", "assay": "Selectivity interaction (KinomeScan (DiscoverX)) EUB0001079a PDGFRA", "conditions": "at 1 µM"}, "[11]": {"target": "Casein kinase I isoform gamma-2 (Homo sapiens) (UniProt P78368)", "sequence (P78368 whole entry, looked up, canonical isoform)": "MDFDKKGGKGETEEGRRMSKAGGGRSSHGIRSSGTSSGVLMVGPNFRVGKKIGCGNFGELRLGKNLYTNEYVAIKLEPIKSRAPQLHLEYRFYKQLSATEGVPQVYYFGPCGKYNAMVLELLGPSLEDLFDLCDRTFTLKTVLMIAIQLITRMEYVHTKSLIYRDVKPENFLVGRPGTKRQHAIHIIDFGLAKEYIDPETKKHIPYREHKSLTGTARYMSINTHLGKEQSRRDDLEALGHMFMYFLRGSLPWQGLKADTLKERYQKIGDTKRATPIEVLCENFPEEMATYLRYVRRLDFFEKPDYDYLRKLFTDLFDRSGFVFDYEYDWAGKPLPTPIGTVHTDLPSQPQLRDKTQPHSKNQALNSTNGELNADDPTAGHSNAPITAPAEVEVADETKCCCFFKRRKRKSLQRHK", "assay": "Selectivity interaction (KinomeScan (DiscoverX)) EUB0000092b CSNK1G2", "conditions": "at 10 µM"}, "[12]": {"target": "Tyrosine-protein kinase receptor UFO (Homo sapiens) (UniProt P30530)", "sequence (P30530 whole entry)": "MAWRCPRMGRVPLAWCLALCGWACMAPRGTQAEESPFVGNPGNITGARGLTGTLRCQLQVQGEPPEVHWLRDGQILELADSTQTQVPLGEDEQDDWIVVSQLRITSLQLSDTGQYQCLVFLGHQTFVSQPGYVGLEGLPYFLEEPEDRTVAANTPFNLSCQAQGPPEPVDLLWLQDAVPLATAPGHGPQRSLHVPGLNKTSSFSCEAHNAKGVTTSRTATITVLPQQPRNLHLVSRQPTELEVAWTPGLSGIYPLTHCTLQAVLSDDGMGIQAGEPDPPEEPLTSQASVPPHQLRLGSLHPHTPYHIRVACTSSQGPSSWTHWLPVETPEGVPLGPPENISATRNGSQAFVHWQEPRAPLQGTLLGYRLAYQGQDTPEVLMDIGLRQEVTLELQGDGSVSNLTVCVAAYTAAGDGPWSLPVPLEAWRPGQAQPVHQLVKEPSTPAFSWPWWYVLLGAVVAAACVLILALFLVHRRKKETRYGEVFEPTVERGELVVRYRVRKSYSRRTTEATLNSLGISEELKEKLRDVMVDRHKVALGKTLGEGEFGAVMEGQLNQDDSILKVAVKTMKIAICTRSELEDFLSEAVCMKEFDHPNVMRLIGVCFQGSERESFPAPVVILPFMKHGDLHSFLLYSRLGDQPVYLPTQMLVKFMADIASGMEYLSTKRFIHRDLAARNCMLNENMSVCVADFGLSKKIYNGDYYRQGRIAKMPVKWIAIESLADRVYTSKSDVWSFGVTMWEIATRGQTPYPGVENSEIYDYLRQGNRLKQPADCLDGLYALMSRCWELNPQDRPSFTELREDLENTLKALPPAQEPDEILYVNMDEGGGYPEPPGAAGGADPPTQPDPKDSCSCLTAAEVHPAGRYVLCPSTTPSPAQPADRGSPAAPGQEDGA", "assay": "Selectivity interaction (Upstate Kinase Profiler service (Millipore)) EUB0000056c AXL", "conditions": "at 1 µM"}, "[13]": {"target": "Mitogen-activated protein kinase kinase kinase 1 (Homo sapiens, UniProt Q13233)", "assay": "Selectivity interaction (Kinase panel (KiNativ target engagement assay in Jurkat cells)) EUB0001635a MAP3K1", "type": "cell-based", "conditions": "Selectivity number of off-targets 0.0, Selectivity number of targets 233.0, Source Knowledge https://www.sciencedirect.com/science/article/pii/S2451945619300674?via%3Dihub, at 1 µM"}, "[14]": {"assay": "Selectivity interaction (KinomeScan (DiscoverX)) EUB0000666a PKNB", "conditions": "at 10 µM"}}}
{"smiles": "CC[C@@H]1[C@H](F)C(=O)N[C@@H]1COc1nccc2cc(C(N)=O)c(OC)cc12", "note": "[ZIMLOVISERTIB]", "values": [{"measurement": "% of inhibition", "setting": "[1]", "value": -1.4, "unit": "%"}]}
{"smiles": "CN1Cc2nccc(-c3cn(C)nc3-c3ccc(F)cc3)c2C1=O", "values": [{"measurement": "% of inhibition", "setting": "[2]", "value": -1, "unit": "%"}]}
{"smiles": "Cc1cc(C)cc([C@H]2c3cc(C)ccc3NC(=O)CN2C(=O)c2ccc(Br)s2)c1", "values": [{"measurement": "% of activity", "setting": "[3]; at 1 µM", "value": 98.3, "unit": "%"}, {"measurement": "% of activity", "setting": "[3]; at 10 µM", "value": 93, "unit": "%"}]}
{"smiles": "CCN(CC)CCCCNc1ncc2cc(-c3cc(OC)cc(OC)c3)c(NC(=O)NC(C)(C)C)nc2n1", "values": [{"measurement": "% of control", "setting": "[4]", "value": 100, "unit": "%"}]}
{"smiles": "Cc1cc(C)cc([C@@H]2c3cc(C)ccc3NC(=O)CN2C(=O)c2ccc(Br)s2)c1", "values": [{"measurement": "% of activity", "setting": "[5]; at 1 µM", "value": 102, "unit": "%"}, {"measurement": "% of activity", "setting": "[5]; at 10 µM", "value": 103, "unit": "%"}]}
{"smiles": "COCC(=O)NC/C=C/c1ccc2ncnc(Nc3ccc(Oc4ccc(C)nc4)c(C)c3)c2c1", "note": "[CP-724714]", "values": [{"measurement": "% of control", "setting": "[6]", "value": 100, "unit": "%"}]}
{"smiles": "COc1cc(N(C)c2ccnc3ccc(C(F)(F)F)cc23)cc(OC)c1OC", "values": [{"measurement": "% binding", "setting": "[7]", "value": 100, "unit": "%"}, {"measurement": "% binding", "setting": "[8]", "value": 90, "unit": "%"}, {"measurement": "% binding", "setting": "[9]", "value": 84, "unit": "%"}]}
{"smiles": "Nc1cnc(N2CCc3cc(S(=O)(=O)Nc4c(F)cc(Cl)cc4F)cc(N4CCCC4=O)c32)nc1", "note": "[TP-020n]", "values": [{"measurement": "% of control", "setting": "[10]", "value": 89, "unit": "%"}]}
{"smiles": "CCC(=O)N1CCN(c2ccc(-n3c(=O)ccc4cnc5ccc(-c6cnc7ccccc7c6)cc5c43)cc2C(F)(F)F)CC1", "values": [{"measurement": "% of control", "setting": "[11]", "value": 100, "unit": "%"}]}
{"smiles": "Cc1ccc(-c2ccc3c(ccc4sc5c(c43)NC[C@@H](C)NC5=O)n2)cn1", "values": [{"measurement": "% of inhibition", "setting": "[12]", "value": 58, "unit": "%"}]}
{"smiles": "C=CC(=O)Nc1ccc(C(=O)Nc2[nH]nc3c2CN(C(=O)N[C@H](CN(C)C)c2ccccc2)C3(C)C)cc1", "values": [{"measurement": "% of engagement", "setting": "[13]", "value": 12.9, "unit": "%"}]}
{"smiles": "O=C(NOC[C@H](O)CO)c1ccc(F)c(F)c1Nc1ccc(I)cc1F", "values": [{"measurement": "% of control", "setting": "[14]", "value": 91, "unit": "%"}]}
